Test results: patent US6699834B1, “Method for treating cancer” (University of Maryland Biotechnology Institute, priority 1997, dated 2004)

Legend:
[1] = test system: hematopoietic progenitor cells; test: Hematopoietic progenitor clonogenic assays (CFU-GEMM, BFU-e, CFU-GM); format: cell-based, human; settings: relative increase of hematopoietic colony cell number; hCG preparations 200 IU/ml, subunits and peptides 100 μg/ml
Description: The effect of hCG preparations and peptides was assayed on hematopoietic progenitor cells in vitro: Hematopoietic progenitor cells (2×10^5 cell/ml) were isolated from normal bone marrow and cord blood and seeded in methylcellulose. […] The hCG preparations were administered at 200 IU/ml and the β- and α-subunits and peptides were administered at 100 μg/ml. The native commercial preparation of hCG (APL™, Wyeth Ayerst) was pre-tested for anti-HIV and anti-KS activities. Aggregates containing more than 50 cells after 10 days of culture were counted as colonies.

HIV-1 = settings: for HIV in vitro Inhibition: inhibition of HIV-1 replication in vitro (HIV-1 strains and HIV-1 primary isolates)
Text: To prepare HIV infected cells for the in vitro assay of hCG preparations and β-hCG peptides and derivatives, primary PBMCs, macrophages, and CD4^+ T cells isolated from peripheral blood and the H9 human T cell line, were acutely or chronically infected with 8 different HIV-1 strains: 4 cell line adapted viruses, namely the macrophage tropic Ba-L strain (Gartner et al., 1986, Science 233:215-219) and the CD4^+ T cell tropic MN, RF, and IIIB strains (10^5 TCID50/ml) (Popovic et al., 1984, Science […]; Gallo et al.; 1984, Science 224:500-503); 2 isolates, Ju1083 and G3, from Nigerian AIDS patients passed once in a CD4^+ T cell line (Sub-T1); and 2 primary (“clinical”) isolates from AIDS patients from Trinidad which were never passed in any cell line and were used at a titer of 7.5×10^4TCID50/ml. In all experiments; HIV1 (10^5 TCID50/ml) was added to the cells(10^6 cells/ml) for a 2 hour incubation after which the virus infected cells were washed with 10 ml phosphate buffered saline (PBS) three times to eliminate extra cellular virus. The test inhibitor, i.e. the hCG or β-hCG peptide preparation was then added and the cells were incubated with the test inhibiter for 9 to 10 days with serial sampling. Cultures were assayed for p24 antigen on days 3 to 10.
Peptides of the α- and β-subunits (0.05 to 50 nmoles/ml), native α chain preparation, and various crude preparations of the native hCG heterodimer (0.01 to 1,000 IU) and the native β-hCG subunit (100 to 1,000 μg) were tested for effects on HIV-1 replication in acutely infected cells-by measuring change in viral antigen levels in response to the above noted preparations (FIGS. 4A-D and Table 3).
The fractions were then tested for anti-HIV, anti-KS and pro-hematopoietic activities in vitro. To assay for inhibition of HIV-1 replication in vitro, the HIV-1 […] viral strain was used to infect PBMCs and PM-1 cells (derived from the HUT-78 T-cell lymphoma cell line) at 10^3 TCID50/ml as described in detail herein.

KS Y-1 and KS-SLK cells = test: Kaposi's Sarcoma clonogenic assay in cultured cells; format: cell-based, human; settings: inhibition of Kaposi's Sarcoma cell growth in vitro in cultured cells
Description: Briefly, the KS Y-1 cells were obtained from mononuclear cells isolated from pleural effusion of an AIDS patient with KS in the lungs. After the depletion of T lymphocytes, monocytes/macrophages and fibroblasts using monoclonal antibodies against CD2, CD3, CD4, CD8, CD10 and CD14 membrane antigens and baby rabbit complement, the cells were cultured in the absence of exogenous growth factors to select for transformed cells. […] Clonogenic assays were performed by seeding the KS Y-1 or KS-SLK cells in methylcellulose (0.8%, v/v), incubating the cells for 10 days in the presence or absence of the hCC, β-hCG or β-hCG peptide preparations and then counting the number of well-formed colonies of triplicate wells formed after seeding with 5×10^4 cells.
To assay for activity against Kaposi's sarcoma cell growth in vitro, the clonogenic assay described herein was used with the KS Y-1 and KS-SLK cultured Kaposi's Sarcoma cell lines,.

| Compound | Pro-hematopoiesis in vitro Enhancement [1] | HIV in vitro Inhibition (HIV-1) | KS in vitro (KS Y-1 and KS-SLK cells) | inhibition of HIV-1 infection/replication in vitro (in words) (HIV-1) |
| --- | --- | --- | --- | --- |
| 40. 72-92: α-hCG amino acids 72-92 (GGFKVENHTACHCSTCYYHKS; UniProt P01215 96-116, looked up, fragment) | − (“−” represents less than 10% effect) | − (“−” represents less than 10% effect) | − (“−” represents less than 10% effect) |  |
| 24. 34-39: β-hCG amino acids 34-39 (CAGYCP; UniProt P0DN86 54-59, looked up, fragment) |  | − (“−” represents less than 10% effect) | − (“−” represents less than 10% effect) |  |
| 38. 41-61: α-hCG amino acids 41-61 (LRSKKTMLVQKNVTSESTCCV; UniProt P01215 65-85, looked up, fragment) |  | − (“−” represents less than 10% effect) | − (“−” represents less than 10% effect) |  |
| 19. 93-100: β-hCG amino acids 93-100 (CRRSTTDC; UniProt P0DN86 113-120, looked up, fragment) |  | − (“−” represents less than 10% effect) | − (“−” represents less than 10% effect) |  |
| 28. 113-132: β-hCG amino acids 113-132 (PRFQDSSSSKAPPPSLPSPS; UniProt P0DN86 133-152, looked up, fragment) | − (“−” represents less than 10% effect) |  | − (“−” represents less than 10% effect) |  |
| 27. 100-110: β-hCG amino acids 100-110 (CGGPKDHPLTC; UniProt P0DN86 120-130, looked up, fragment) |  | − (“−” represents less than 10% effect) | − (“−” represents less than 10% effect) |  |
| 23. 57-93: β-hCG amino acids 57-93 (CNYRDVRFESIRLPGCPRGVNPVVSYAVALSCQCALC; UniProt P0DN86 77-113, looked up, fragment) | − (“−” represents less than 10% effect) | − (“−” represents less than 10% effect) | − (“−” represents less than 10% effect) |  |
| 20. 110-145: β-hCG amino acids 110-145 (CDDPRFQDSSSSKAPPPSLPSPSRLPGPSDTPILPQ; UniProt P0DN86 130-165, looked up, fragment) | − (“−” represents less than 10% effect) |  | − (“−” represents less than 10% effect) |  |
| 25. 123-145: β-hCG amino acids 123-145 |  | − (“−” represents less than 10% effect) | − (“−” represents less than 10% effect) |  |
| 17. 46-65: β-hCG amino acids 46-65 (SEQ ID NO:34) (QGVLPALPQVVCNYRDVRFE) |  | + (“+” represents greater than 15% effect) | + (“+” represents greater than 15% effect) | inhibited HIV-1 replication |
| 37. 26-45: α-hCG amino acids 26-45 (LQCMGCCFSRAYPTPLRSKK; UniProt P01215 50-69, looked up, fragment) | − (“−” represents less than 10% effect) | − (“−” represents less than 10% effect) | − (“−” represents less than 10% effect) |  |
| 14. 1-20: β-hCG amino acids 1-20 (SKEPLRPRCRPINATLAVEK; UniProt P0DN86 21-40, looked up, fragment) |  | − (“−” represents less than 10% effect) | − (“−” represents less than 10% effect) |  |
| 34. 88-92: α-hCG amino acids 88-92 (YYHKS; UniProt P01215 112-116, looked up, fragment) |  | − (“−” represents less than 10% effect) | − (“−” represents less than 10% effect) | little or no effect |
| 31. 51-59: β-hCG amino acids 51-59 (ALPQVVCNY; UniProt P0DN86 71-79, looked up, fragment) | − (“−” represents less than 10% effect) | − (“−” represents less than 10% effect) | − (“−” represents less than 10% effect) |  |
| 18. 91-112: β-hCG amino acids 91-112 (ALCRRSTTDCGGPKDHPLTCDD; UniProt P0DN86 111-132, looked up, fragment) | − (“−” represents less than 10% effect) |  | − (“−” represents less than 10% effect) |  |
| 16. 31-50: β-hCG amino acids 31-50 (TTICAGYCPTMTRVLQGVLP; UniProt P0DN86 51-70, looked up, fragment) | − (“−” represents less than 10% effect) | − (“−” represents less than 10% effect) | − (“−” represents less than 10% effect) |  |
| Oc1ccccc1 [phenol, reference compound] |  |  |  | no effect on HIV-1 replication |
| 29. 128-145: β-hCG amino acids 128-145 (LPSPSRLPGPSDTPILPQ; UniProt P0DN86 148-165, looked up, fragment) | −V (“−” represents less than 10% effect) | − (“−” represents less than 10% effect) | − (“−” represents less than 10% effect) |  |
| 22. 7-40: β-hCG amino acids 7-40 (SEQ ID NO:33) (PRCRPINATLAVEKEGCPVCITVNTTICAGYCPT) | − (“−” represents less than 10% effect) | + (“+” represents greater than 15% effect) | + (“+” represents greater than 15% effect) | inhibited HIV-1 replication |
| 36. 16-30: α-hCG amino acids 16-30 (PFFSQPGAPILQCMG; UniProt P01215 40-54, looked up, fragment) | − (“−” represents less than 10% effect) | − (“−” represents less than 10% effect) | − (“−” represents less than 10% effect) |  |
| 26. 134-144: β-hCG amino acids 134-144 | − (“−” represents less than 10% effect) | − (“−” represents less than 10% effect) | − (“−” represents less than 10% effect) |  |
| 21. 74-95: β-hCG amino acids 74-95 (RGVNPVVSYAVALSCQCALCRR; UniProt P0DN86 94-115, looked up, fragment) | − (“−” represents less than 10% effect) | − (“−” represents less than 10% effect) | − (“−” represents less than 10% effect) |  |
| 39. 57-76: α-hCG amino acids 57-76 (STCCVAKSYNRVTVMGGFKV; UniProt P01215 81-100, looked up, fragment) |  | − (“−” represents less than 10% effect) | − (“−” represents less than 10% effect) |  |
